From ChEMBL document CHEMBL5034015, “Structure-Based Optimization of 3-Phenyl-N-(2-(3-phenylureido)ethyl)thiophene-2-sulfonamide Derivatives as Selective Mcl-1 Inhibitors” (J Med Chem, 2021)
Calls of active or inactive are those of the source. Unless noted, the calls are words filed in the database; no cut-off is given here.

Legend:
[1] = target: T1, Induced myeloid leukemia cell differentiation protein Mcl-1 (Homo sapiens, UniProt Q07820); experiment: Binding affinity to full length human MCL1 expressed in Escherichia coli BL21 (DE3) at 100 uM preincubated for 30 mins followed by 5-FAM-QEDIIIINIARHLAQVGDSMD-RSIPPG tracer addition and measured after 20 mins by fluorescence polarization assay relative to control; settings: time 50.0 min
RS4-11 [2] = experiment: cells; settings: Homo sapiens, RS4-11, 48 h
Description: Cytotoxicity against human RS4-11 cells assessed as inhibition of cell growth incubated for 48 hrs by CCK8 assay

HEK-293T = experiment: Cytotoxicity against HEK293T cells assessed as reduction in cell viability incubated for 48 hrs by CCK8 assay; settings: Homo sapiens
[3] = target: T2, Apoptosis regulator Bcl-2 (Homo sapiens, UniProt P10415); experiment: Binding affinity to full length human Bcl-2 expressed in Escherichia coli BL21 (DE3) at 100 uM preincubated for 30 mins followed by 5-FAM-QEDIIIINIARHLAQVGDSMD-RSIPPG tracer addition and measured after 20 mins by fluorescence polarization assay relative to control; settings: time 50.0 min
Bcl-2-like protein 1 [4] = target: T3, Bcl-2-like protein 1 (Homo sapiens, UniProt Q07817); experiment: Binding affinity to full length human Bcl-xl expressed in Escherichia coli BL21 (DE3) at 100 uM preincubated for 30 mins followed by 5-FAM-QEDIIIINIARHLAQVGDSMD-RSIPPG tracer addition and measured after 20 mins by fluorescence polarization assay relative to control; settings: time 50.0 min
[5] = target: Induced myeloid leukemia cell differentiation protein Mcl-1/Bcl-2-like protein 11 (Homo sapiens) (UniProt Q07820+O43521); experiment: Inhibition of MCL1/Bim interaction in human MCF7 cells assessed as disruption of MCL1/Bim complex at 10 uM measured after 24 hrs by co-immunoprecipitation based western blot analysis relative to control; type: cell-based
HL-60 [6] = experiment: cells; settings: Homo sapiens, HL-60, 48 h
Description: Cytotoxicity against human HL-60 cells assessed as inhibition of cell growth incubated for 48 hrs by CCK8 assay

HeLa [7] = experiment: cells; settings: Homo sapiens, 48 h
Description: Cytotoxicity against human HeLa cells assessed as inhibition of cell growth incubated for 48 hrs by CCK8 assay

[8] = target: T1, Induced myeloid leukemia cell differentiation protein Mcl-1; experiment: Binding affinity to 15N-labeled human MCL1 (172 to 327 residues) expressed in Escherichia coli BL21 (DE3) assessed as chemical shift at F228 residue at 0.3 mM incubated for 1 hr by 15N HSQC NMR spectroscopy analysis
RS4-11 [9] = experiment: Induction of apoptosis in human RS4-11 cells assessed as early apoptotic cells at 20 uM measured after 24 hrs by Annexin V/7-AAD and MitoSense Red staining based flow cytometry analysis relative to control (reference value: 3.75 %); type: functional
RS4-11 [10] = experiment: Induction of apoptosis in human RS4-11 cells assessed as late apoptotic cells at 20 uM measured after 24 hrs by Annexin V/7-AAD and MitoSense Red staining based flow cytometry analysis relative to control (reference value: 0.99 %); type: functional
[11] = target: T1, Induced myeloid leukemia cell differentiation protein Mcl-1; experiment: Binding affinity to 15N-labeled human MCL1 (172 to 327 residues) expressed in Escherichia coli BL21 (DE3) assessed as chemical shift at L235 residue at 0.3 mM incubated for 1 hr by 15N HSQC NMR spectroscopy analysis
RS4-11 [12] = experiment: Induction of apoptosis in human RS4-11 cells assessed as viable cells at 20 uM measured after 24 hrs by Annexin V/7-AAD and MitoSense Red staining based flow cytometry analysis relative to control (reference value: 94.15 %); type: functional; settings: read-out: Activity
[13] = target: T1, Induced myeloid leukemia cell differentiation protein Mcl-1; experiment: Binding affinity to 15N-labeled human MCL1 (172 to 327 residues) expressed in Escherichia coli BL21 (DE3) assessed as chemical shift at H224 residue at 0.3 mM incubated for 1 hr by 15N HSQC NMR spectroscopy analysis
[14] = target: T1, Induced myeloid leukemia cell differentiation protein Mcl-1; experiment: Binding affinity to 15N-labeled human MCL1 (172 to 327 residues) expressed in Escherichia coli BL21 (DE3) assessed as chemical shift at M231 residue at 0.3 mM incubated for 1 hr by 15N HSQC NMR spectroscopy analysis
[15] = target: T1, Induced myeloid leukemia cell differentiation protein Mcl-1; experiment: Binding affinity to 15N-labeled human MCL1 (172 to 327 residues) expressed in Escherichia coli BL21 (DE3) assessed as chemical shift at R263 residue at 0.3 mM incubated for 1 hr by 15N HSQC NMR spectroscopy analysis
Bcl-2-like protein 1 [16] = target: T3, Bcl-2-like protein 1; experiment: Binding affinity to full length human Bcl-xl expressed in Escherichia coli BL21 (DE3) at up to 100 uM preincubated for 30 mins followed by 5-FAM-QEDIIIINIARHLAQVGDSMD-RSIPPG tracer addition and measured after 20 mins by fluorescence polarization assay; settings: dose microM <=100, time 50.0 min
[17] = target: T2, Apoptosis regulator Bcl-2; experiment: Binding affinity to full length human Bcl-2 expressed in Escherichia coli BL21 (DE3) at up to 100 uM preincubated for 30 mins followed by 5-FAM-QEDIIIINIARHLAQVGDSMD-RSIPPG tracer addition and measured after 20 mins by fluorescence polarization assay; settings: dose microM <=100, time 50.0 min
[18] = target: T1, Induced myeloid leukemia cell differentiation protein Mcl-1; experiment: Binding affinity to 15N-labeled human MCL1 (172 to 327 residues) expressed in Escherichia coli BL21 (DE3) assessed as chemical shift at M250 residue at 0.3 mM incubated for 1 hr by 15N HSQC NMR spectroscopy analysis
MCF7 = experiment: Inhibition of Bcl-2/Bim interaction in human MCF7 cells assessed as disruption of Bcl-2/Bim complex at 10 uM measured after 24 hrs by co-immunoprecipitation based western blot analysis relative to control; type: cell-based
RS4-11 [19] = experiment: Induction of apoptosis in human RS4-11 cells assessed as necrotic cells at 20 uM measured after 24 hrs by Annexin V/7-AAD and MitoSense Red staining based flow cytometry analysis relative to control (reference value: 1.11 %); type: functional
[20] = Cytotoxicity against HEK293T cells assessed as cell viability at 20 uM incubated for 48 hrs by CCK8 assay relative to control; type: cell-based, HEK-293T; settings: human, read-out: Activity
HL-60 [21] = experiment: Cytotoxicity against human HL-60 cells assessed as cell viability at 20 uM incubated for 48 hrs by CCK8 assay relative to control; type: functional; settings: read-out: Activity
RS4-11 [22] = experiment: Cytotoxicity against human RS4-11 cells assessed as cell viability at 20 uM incubated for 48 hrs by CCK8 assay relative to control; type: functional; settings: read-out: Activity
HeLa [23] = experiment: Cytotoxicity against human HeLa cells assessed as cell viability at 20 uM incubated for 48 hrs by CCK8 assay relative to control; type: functional; settings: read-out: Activity
RS4-11 [24] = experiment: Induction of apoptosis in human RS4-11 cells assessed as increase in cleaved PARP expression incubated for 48 hrs by western blot analysis; type: functional, cell-based
RS4-11 [25] = experiment: Induction of apoptosis in human RS4-11 cells assessed as increase in cleaved caspase 3 expression incubated for 48 hrs by western blot analysis; type: functional, cell-based
RS4-11 [26] = experiment: Induction of apoptosis in human RS4-11 cells assessed as increase in cleaved caspase 9 expression incubated for 48 hrs by western blot analysis; type: functional, cell-based
[27] = target: T1, Induced myeloid leukemia cell differentiation protein Mcl-1; experiment: Binding affinity to full length human MCL1 expressed in Escherichia coli BL21 (DE3) assessed as inhibition constant preincubated for 30 mins followed by 5-FAM-QEDIIIINIARHLAQVGDSMD-RSIPPG tracer addition and measured after 20 mins by fluorescence polarization assay
RS4-11 [28] = experiment: Induction of apoptosis in human RS4-11 cells assessed as necrotic cells at 1 uM measured after 24 hrs by Annexin V/7-AAD and MitoSense Red staining based flow cytometry analysis relative to control (reference value: 1.11 %); type: functional
RS4-11 [29] = experiment: Induction of apoptosis in human RS4-11 cells assessed as early apoptotic cells at 1 uM measured after 24 hrs by Annexin V/7-AAD and MitoSense Red staining based flow cytometry analysis relative to control (reference value: 3.75 %); type: functional
RS4-11 [30] = experiment: Induction of apoptosis in human RS4-11 cells assessed as late apoptotic cells at 1 uM measured after 24 hrs by Annexin V/7-AAD and MitoSense Red staining based flow cytometry analysis relative to control (reference value: 0.99 %); type: functional
RS4-11 [31] = experiment: Induction of apoptosis in human RS4-11 cells assessed as viable cells at 1 uM measured after 24 hrs by Annexin V/7-AAD and MitoSense Red staining based flow cytometry analysis relative to control (reference value: 94.15 %); type: functional; settings: read-out: Activity
[32] = target: T1, Induced myeloid leukemia cell differentiation protein Mcl-1; experiment: Binding affinity to full length human MCL1 expressed in Escherichia coli BL21 (DE3) at up to 100 uM preincubated for 30 mins followed by 5-FAM-QEDIIIINIARHLAQVGDSMD-RSIPPG tracer addition and measured after 20 mins by fluorescence polarization assay; settings: dose microM <=100, time 50.0 min

T3 sequence (Q07817 whole entry): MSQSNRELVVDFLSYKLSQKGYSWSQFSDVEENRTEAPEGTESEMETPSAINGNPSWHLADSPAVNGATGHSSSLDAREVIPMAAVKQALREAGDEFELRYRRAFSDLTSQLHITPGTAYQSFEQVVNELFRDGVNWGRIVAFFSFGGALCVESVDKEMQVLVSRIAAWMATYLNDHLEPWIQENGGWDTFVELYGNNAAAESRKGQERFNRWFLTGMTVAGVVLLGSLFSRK
T1 sequence (Q07820 whole entry): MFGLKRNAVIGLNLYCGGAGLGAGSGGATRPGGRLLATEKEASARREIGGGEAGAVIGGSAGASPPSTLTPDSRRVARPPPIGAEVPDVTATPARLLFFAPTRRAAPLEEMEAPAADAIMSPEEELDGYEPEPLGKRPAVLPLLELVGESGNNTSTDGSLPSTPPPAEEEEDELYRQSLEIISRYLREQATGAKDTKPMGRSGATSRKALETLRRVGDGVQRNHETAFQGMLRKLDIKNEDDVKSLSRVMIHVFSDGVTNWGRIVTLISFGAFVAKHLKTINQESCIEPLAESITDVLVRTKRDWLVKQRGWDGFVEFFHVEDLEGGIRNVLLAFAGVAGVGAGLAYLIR
T2 sequence (P10415 whole entry): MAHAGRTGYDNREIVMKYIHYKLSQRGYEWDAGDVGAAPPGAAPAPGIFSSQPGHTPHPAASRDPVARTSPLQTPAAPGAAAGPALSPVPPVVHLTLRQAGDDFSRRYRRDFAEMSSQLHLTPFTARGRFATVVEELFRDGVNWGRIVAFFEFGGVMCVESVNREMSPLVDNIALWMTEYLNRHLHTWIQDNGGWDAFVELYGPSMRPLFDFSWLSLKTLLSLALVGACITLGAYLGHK
Sequence of Induced myeloid leukemia cell differentiation protein Mcl-1/Bcl-2-like protein 11 (Homo sapiens) (O43521 whole entry, looked up): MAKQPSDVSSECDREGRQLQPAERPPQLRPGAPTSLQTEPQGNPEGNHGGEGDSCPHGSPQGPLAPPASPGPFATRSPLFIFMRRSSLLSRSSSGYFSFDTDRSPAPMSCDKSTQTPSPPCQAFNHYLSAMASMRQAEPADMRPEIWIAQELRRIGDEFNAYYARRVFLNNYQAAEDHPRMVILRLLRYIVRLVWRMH
Sequence of Induced myeloid leukemia cell differentiation protein Mcl-1/Bcl-2-like protein 11 (Homo sapiens) (Q07820 whole entry, looked up): as the sequence (Q07820 whole entry) above

Row | inhibition [1] | IC50 (RS4-11 [2]) | inhibition [3] | inhibition (Bcl-2-like protein 1 [4]) | IC50 (HL-60 [6]) | IC50 (HeLa [7]) | Activity (Bcl-2-like protein 1 [16]) | Activity [17] | SMILES | IC50 (HEK-293T) | viability at 20 µM (HL-60 [21]) | other results
1 | 41% | > 50 µM | 18% | 37% | > 50 µM | > 50 µM |  |  | COc1ccc(Oc2ccc([N+](=O)[O-])cc2-c2ccsc2S(=O)(=O)N2CCN(C(=S)Nc3ccc(Cl)cc3)CC2)cc1OC | > 50 µM |  | inhibition [5]: 30%
2 |  | 5.6 µM |  |  | 3.7 µM | 9.7 µM | inactive | inactive | Cc1ccc(-c2ccsc2S(=O)(=O)NCCNC(=O)Nc2cc(C(F)(F)F)cc(C(F)(F)F)c2)c(Oc2ccc(O)c(O)c2)c1 | > 20 µM |  | Activity [8]: Active; Activity (RS4-11 [9]): 12.98%; Activity (RS4-11 [10]): 75.04%; Activity [11]: Active; viability at 20 µM (RS4-11 [12]): 8.79%; Activity [13]: Active; Activity [14]: Active; Activity [15]: Active; Activity [18]: Active; inhibition [5]: 70%; inhibition (MCF7): inactive; Activity (RS4-11 [19]): 3.19%
3 | 66% | > 50 µM | 25% | 29% |  | > 50 µM |  |  | COc1ccc(Oc2ccccc2-c2ccsc2S(=O)(=O)N2CCN(C(=S)Nc3cc(C(F)(F)F)cc(C(F)(F)F)c3)CC2)cc1OC |  | 38% | viability at 48 h, 20 µM [20]: 42%
4 | 47% |  | 7% | -8% |  |  |  |  | O=C(Nc1cc(C(F)(F)F)cc(C(F)(F)F)c1)N1CCN(S(=O)(=O)c2sccc2-c2ccccc2Oc2ccc(O)c(O)c2)CC1 |  | 15% | viability at 20 µM (RS4-11 [22]): 10%; viability at 20 µM (HeLa [23]): 20%; viability at 48 h, 20 µM [20]: 29%
5 |  | 3.3 µM |  |  | 2.8 µM | 6.4 µM | inactive | inactive | COc1ccc(Oc2ccccc2-c2ccsc2S(=O)(=O)NCCNC(=S)Nc2cc(C(F)(F)F)cc(C(F)(F)F)c2)cc1OC | 6.8 µM |  | Activity (RS4-11 [24]): Dose-Dependent Effect; Activity (RS4-11 [9]): 3.1%; Activity (RS4-11 [10]): 93.97%; viability at 20 µM (RS4-11 [12]): 2.6%; Activity (RS4-11 [25]): Dose-Dependent Effect; Activity (RS4-11 [26]): Dose-Dependent Effect; inhibition (MCF7): 20%; Activity (RS4-11 [19]): 0.26%
6 |  | 6.8 µM |  |  |  | > 50 µM | inactive | inactive | CC(C)c1ccc(Oc2ccc(O)c(O)c2)c(-c2ccsc2S(=O)(=O)NCCNC(=O)Nc2cc(C(F)(F)F)cc(C(F)(F)F)c2)c1 | > 20 µM | 23% | Ki [27]: 0.36 µM
7 |  |  |  |  |  |  |  |  | CC1(C)CCC(CN2CCN(c3ccc(C(=O)NS(=O)(=O)c4ccc(NCC5CCOCC5)c([N+](=O)[O-])c4)c(Oc4cnc5[nH]ccc5c4)c3)CC2)=C(c2ccc(Cl)cc2)C1 [VENETOCLAX] |  |  | Activity (RS4-11 [28]): 0.26%; Activity (RS4-11 [24]): Dose-Dependent Effect; Activity (RS4-11 [29]): 10.75%; Activity (RS4-11 [25]): Dose-Dependent Effect; Activity (RS4-11 [30]): 88.54%; Activity (RS4-11 [26]): Dose-Dependent Effect; viability at 1 µM (RS4-11 [31]): 0.45%; Activity [32]: inactive
